Test results taken from patent US9951063B2, “8-(piperazin-1-yl)-1,2,3,4-tetrahydro-isoquinoline derivatives” (IDORSIA PHARMACEUTICALS LTD, priority 2014, dated 2018).

biological target: human CXCR3A (Homo sapiens (Human), UniProt P49682); assay: FLIPR assay (inhibition of CXCL10-induced calcium signal); type: cell-based; conditions: engineered CHO-K1 cells expressing human CXCR3A coupled to Galpha(16); Fluo-4-AM; CXCL10 agonist 20 nM; mean values where determined several times
Protocol: The bioactivity of compounds is tested in a fluorometric imaging plate reader (FLIPR: Molecular Devices) using engineered CHO-K1 cells expressing the human CXCR3A (GenBank: AY242128) coupled to a G protein (Galpha(16)). Cells are plated the day prior to bioassay in F12 medium supplemented with 10% FBS and G418 and hygromycin antibiotics to maintain recombinant selection. At the day of bioassay, cells are washed and dye loaded for one hour with Fluo-4-AM (Invitrogen) in Hanks Balanced Salt Solution (Invitrogen), buffered with 20 mM Hepes at pH 7.4 and sodium bicarbonate (0.038%), containing 5 mM probenecid. This buffer, but lacking the dye and containing probenecid at a concentration of 2.5 mM, is also used for washing steps (wash buffer); or lacking both dye and probenecid but supplemented with 0.1% BSA for compound dilution steps (dilution buffer). Cells are washed free of excess dye and 60 microliter of wash buffer is added. Stock solutions of test compounds are made up at a concentration of 10 mM in DMSO, and serially diluted in dilution buffer to concentrations required for inhibition dose response curves. After a 10 minute incubation period at 37° C., 10 microliters of each compound dilution are transferred from a compound plate to the plate containing the recombinant cells in the FLIPR instrument according to the manufacturer's instructions. Following basal readings, 10 microliter CXCL10 agonist at a concentration of 20 nM (from Peprotech) is added, again using the FLIPR instrument. Changes in fluorescence are monitored before and after addition of the test compounds. Emission peak values above base level after CXCL10 addition are exported after base line subtraction.
The calculated IC50 values may fluctuate depending on the daily assay performance. Fluctuations of this kind are known to those skilled in the art. In the case where IC50 values have been determined several times for the same compound, mean values are given.

human CXCR3A, sequence (P49682 whole entry): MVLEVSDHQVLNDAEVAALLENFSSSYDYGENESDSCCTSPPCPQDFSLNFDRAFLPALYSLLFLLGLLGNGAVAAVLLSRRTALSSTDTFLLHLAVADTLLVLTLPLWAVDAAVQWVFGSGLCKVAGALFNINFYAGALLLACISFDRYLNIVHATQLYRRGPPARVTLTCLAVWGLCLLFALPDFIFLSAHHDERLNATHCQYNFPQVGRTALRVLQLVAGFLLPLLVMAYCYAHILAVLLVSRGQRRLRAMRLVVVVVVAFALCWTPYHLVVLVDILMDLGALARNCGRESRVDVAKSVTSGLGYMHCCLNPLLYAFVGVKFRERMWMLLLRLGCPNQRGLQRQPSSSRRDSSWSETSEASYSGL

`C[C@@H]1CN(c2ccc(C(F)(F)F)c3c2CN(c2cnc(C4CC4)nc2)CC3)CCN1C(=O)Cn1ncc2cccnc21` [Example 47, 1-{(R)-4-[2-(2-Cyclopropyl-pyrimidin-5-yl)-5-trifluoromethyl-1,2,3,4-tetrahydro-isoquinolin-8-yl]-2-methyl-piperazin-1-yl}-2-pyrazolo[3,4-b]pyridin-1-yl-ethanone] and `C[C@@H]1CN(c2ccc(C(F)(F)F)c3c2CN(c2cnc(N(C)C)nc2)CC3)CCN1C(=O)Cn1ncc2cccnc21` [Example 53, 1-{(R)-4-[2-(2-Dimethylamino-pyrimidin-5-yl)-5-trifluoromethyl-1,2,3,4-tetrahydro-isoquinolin-8-yl]-2-methyl-piperazin-1-yl}-2-pyrazolo[3,4-b]pyridin-1-yl-ethanone] are within 1.5-fold of each other in IC50: 7.27 nM for the first, 6.15 nM for the second.

Going from `Cc1ccn(CC(=O)N2CCN(c3ccc(C(F)(F)F)c4c3CN(c3cnc(C5CC5)nc3)CC4)C[C@H]2C)n1` [Example 48, 1-{(R)-4-[2-(2-Cyclopropyl-pyrimidin-5-yl)-5-trifluoromethyl-1,2,3,4-tetrahydro-isoquinolin-8-yl]-2-methyl-piperazin-1-yl}-2-(3-methyl-pyrazol-1-yl)-ethanone] to `Cc1ccnn1CC(=O)N1CCN(c2ccc(C(F)(F)F)c3c2CN(c2cnc(C4CC4)nc2)CC3)C[C@H]1C` [Example 49, 1-{(R)-4-[2-(2-Cyclopropyl-pyrimidin-5-yl)-5-trifluoromethyl-1,2,3,4-tetrahydro-isoquinolin-8-yl]-2-methyl-piperazin-1-yl}-2-(5-methyl-pyrazol-1-yl)-ethanone], the IC50 rises from 1.4 nM to 3.56 nM (2.5-fold). The first is the more potent here.

Going from `Cc1nc(C)n(CC(=O)N2CCN(c3ccc(C(F)(F)F)c4c3CN(c3cnc(N(C)C)nc3)CC4)C[C@H]2C)n1` [Example 50, 1-{(R)-4-[2-(2-Dimethylamino-pyrimidin-5-yl)-5-trifluoromethyl-1,2,3,4-tetrahydro-isoquinolin-8-yl]-2-methyl-piperazin-1-yl}-2-(3,5-dimethyl-[1,2,4]triazol-1-yl)-ethanone] to `CCc1ncc(N2CCc3c(C(F)(F)F)ccc(N4CCN(C(=O)Cn5nc(C)nc5C)[C@H](C)C4)c3C2)cn1` [Example 58, 2-(3,5-Dimethyl-[1,2,4]triazol-1-yl)-1-{(R)-4-[2-(2-ethyl-pyrimidin-5-yl)-5-trifluoromethyl-1,2,3,4-tetrahydro-isoquinolin-8-yl]-2-methyl-piperazin-1-yl}-ethanone], the IC50 rises from 2.26 nM to 16.9 nM (7.5-fold).

`Cc1ccn(CC(=O)N2CCN(c3ccc(C(F)(F)F)c4c3CN(c3cnc(N(C)C)nc3)CC4)C[C@H]2C)n1` [Example 51, 1-{(R)-4-[2-(2-Dimethylamino-pyrimidin-5-yl)-5-trifluoromethyl-1,2,3,4-tetrahydro-isoquinolin-8-yl]-2-methyl-piperazin-1-yl}-2-(3-methyl-pyrazol-1-yl)-ethanone] and `Cc1ccnn1CC(=O)N1CCN(c2ccc(C(F)(F)F)c3c2CN(c2cnc(N(C)C)nc2)CC3)C[C@H]1C` [Example 52, 1-{(R)-4-[2-(2-Dimethylamino-pyrimidin-5-yl)-5-trifluoromethyl-1,2,3,4-tetrahydro-isoquinolin-8-yl]-2-methyl-piperazin-1-yl}-2-(5-methyl-pyrazol-1-yl)-ethanone] are within 1.5-fold of each other in IC50: 4.93 nM for the first, 4.1 nM for the second.

Compared with `CCOc1ncc(N2CCc3c(C(F)(F)F)ccc(N4CCN(C(=O)Cn5nc(C)nc5C)[C@H](C)C4)c3C2)cn1` [Example 54, 2-(3,5-Dimethyl-[1,2,4]triazol-1-yl)-1-{(R)-4-[2-(2-ethoxy-pyrimidin-5-yl)-5-trifluoromethyl-1,2,3,4-tetrahydro-isoquinolin-8-yl]-2-methyl-piperazin-1-yl}-ethanone], `CCOc1ncc(N2CCc3c(C(F)(F)F)ccc(N4CCN(C(=O)Cn5nc(C)cc5C)[C@H](C)C4)c3C2)cn1` [Example 55, 2-(3,5-Dimethyl-pyrazol-1-yl)-1-{(R)-4-[2-(2-ethoxy-pyrimidin-5-yl)-5-trifluoromethyl-1,2,3,4-tetrahydro-isoquinolin-8-yl]-2-methyl-piperazin-1-yl}-ethanone] is 1.6-fold higher in IC50: 6.22 nM for the first, 10 nM for the second.

Compared with `Cc1cc(C)n(CC(=O)N2CCN(c3ccc(C(F)(F)F)c4c3CN(c3ncc(-c5ccccc5)o3)CC4)C[C@H]2C)n1` [Example 56, 2-(3,5-Dimethyl-pyrazol-1-yl)-1-{(R)-2-methyl-4-[2-(5-phenyl-oxazol-2-yl)-5-trifluoromethyl-1,2,3,4-tetrahydro-isoquinolin-8-yl]-piperazin-1-yl}-ethanone], `Cc1cc(C)n(CC(=O)N2CCN(c3ccc(C(F)(F)F)c4c3CN(c3nc5ccccc5s3)CC4)C[C@H]2C)n1` [Example 57, 1-[(R)-4-(2-Benzothiazol-2-yl-5-trifluoromethyl-1,2,3,4-tetrahydro-isoquinolin-8-yl)-2-methyl-piperazin-1-yl]-2-(3,5-dimethyl-pyrazol-1-yl)-ethanone] is 3.3-fold higher in IC50: 8.14 nM for the first, 26.5 nM for the second.

First: Cc1nc(C)n(CC(=O)N2CCN(c3ccc(C(F)(F)F)c4c3CN(c3cnc(C(F)(F)F)nc3)CC4)C[C@H]2C)n1 [Example 59, 2-(3,5-Dimethyl-[1,2,4]triazol-1-yl)-1-{(R)-2-methyl-4-[5-trifluoromethyl-2-(2-trifluoromethyl-pyrimidin-5-yl)-1,2,3,4-tetrahydro-isoquinolin-8-yl]-piperazin-1-yl}-ethanone]
Second: CC(C)C(=O)N1CCc2cccc(N3CCN(C(=O)Cn4cnc5cccnc54)[C@H](C)C3)c2C1 [Example 67, 1-{8-[(R)-4-(2-Imidazo[4,5-b]pyridin-3-yl-acetyl)-3-methyl-piperazin-1-yl]-3,4-dihydro-1H-isoquinolin-2-yl}-2-methyl-propan-1-one]
The IC50 of the first is 50-fold lower: 12.3 nM for the first, 614 nM for the second. The first is the more potent here.

Going from `C[C@@H]1CN(c2cccc3c2CN(C(=O)OCc2ccccc2)CC3)CCN1C(=O)Cn1cnc2cccnc21` [Example 60, 8-[(R)-4-(2-Imidazo[4,5-b]pyridin-3-yl-acetyl)-3-methyl-piperazin-1-yl]-3,4-dihydro-1H-isoquinoline-2-carboxylic acid benzyl ester] to `C[C@@H]1CN(c2cccc3c2CN(C(=O)Cc2cccnc2)CC3)CCN1C(=O)Cn1cnc2cccnc21` [Example 63, 2-Imidazo[4,5-b]pyridin-3-yl-1-{(R)-2-methyl-4-[2-(2-pyridin-3-yl-acetyl)-1,2,3,4-tetrahydro-isoquinolin-8-yl]-piperazin-1-yl}-ethanone], the IC50 rises from 7.94 nM to 668 nM (84-fold).

Compared with `C[C@@H]1CN(c2cccc3c2CN(C(=O)C2CC2)CC3)CCN1C(=O)Cn1cnc2cccnc21` [Example 61, 1-[(R)-4-(2-Cyclopropanecarbonyl-1,2,3,4-tetrahydro-isoquinolin-8-yl)-2-methyl-piperazin-1-yl]-2-imidazo[4,5-b]pyridin-3-yl-ethanone], `C[C@@H]1CN(c2cccc3c2CN(C(=O)C2CCCC2)CC3)CCN1C(=O)Cn1cnc2cccnc21` [Example 69, 1-[(R)-4-(2-Cyclopentanecarbonyl-1,2,3,4-tetrahydro-isoquinolin-8-yl)-2-methyl-piperazin-1-yl]-2-imidazo[4,5-b]pyridin-3-yl-ethanone] is 10-fold lower in IC50: 223 nM for the first, 21.7 nM for the second.

Compared with `COc1ccc(C(=O)N2CCc3cccc(N4CCN(C(=O)Cn5cnc6cccnc65)[C@H](C)C4)c3C2)cc1` [Example 62, 2-Imidazo[4,5-b]pyridin-3-yl-1-{(R)-4-[2-(4-methoxy-benzoyl)-1,2,3,4-tetrahydro-isoquinolin-8-yl]-2-methyl-piperazin-1-yl}-ethanone], `COc1ccc(CCC(=O)N2CCc3cccc(N4CCN(C(=O)Cn5cnc6cccnc65)[C@H](C)C4)c3C2)cc1` [Example 64, 1-{8-[(R)-4-(2-Imidazo[4,5-b]pyridin-3-yl-acetyl)-3-methyl-piperazin-1-yl]-3,4-dihydro-1H-isoquinolin-2-yl}-3-(4-methoxy-phenyl)-propan-1-one] is 1.6-fold higher in IC50: 121 nM for the first, 188 nM for the second.

`C[C@@H]1CN(c2cccc3c2CN(C(=O)c2cocn2)CC3)CCN1C(=O)Cn1cnc2cccnc21` [Example 65, 2-Imidazo[4,5-b]pyridin-3-yl-1-{(R)-2-methyl-4-[2-(oxazole-4-carbonyl)-1,2,3,4-tetrahydro-isoquinolin-8-yl]-piperazin-1-yl}-ethanone] and `COCC(=O)N1CCc2cccc(N3CCN(C(=O)Cn4cnc5cccnc54)[C@H](C)C3)c2C1` [Example 68, 2-Imidazo[4,5-b]pyridin-3-yl-1-{(R)-4-[2-(2-methoxy-acetyl)-1,2,3,4-tetrahydro-isoquinolin-8-yl]-2-methyl-piperazin-1-yl}-ethanone] are within 1.5-fold of each other in IC50: 483 nM for the first, 599 nM for the second.

Compared with `C[C@@H]1CN(c2cccc3c2CN(C(=O)Cn2ccc4ccccc42)CC3)CCN1C(=O)Cn1cnc2cccnc21` [Example 66, 2-Imidazo[4,5-b]pyridin-3-yl-1-{(R)-4-[2-(2-indol-1-yl-acetyl)-1,2,3,4-tetrahydro-isoquinolin-8-yl]-2-methyl-piperazin-1-yl}-ethanone], `C[C@@H]1CN(c2cccc3c2CN(C(=O)C2CCCCC2)CC3)CCN1C(=O)Cn1cnc2cccnc21` [Example 70, 1-[(R)-4-(2-Cyclohexanecarbonyl-1,2,3,4-tetrahydro-isoquinolin-8-yl)-2-methyl-piperazin-1-yl]-2-imidazo[4,5-b]pyridin-3-yl-ethanone] is 5.5-fold lower in IC50: 304 nM for the first, 55.5 nM for the second.
